Experiments:
Assay type in all cases: in vivo
[1] = system: cattle tick larvae (Rhipicephalus microplus), strain Parkhurst, resistant against synthetic pyrethroids; assay: Rhipicephalus (Boophilus) microplus in-vitro contact test, larval cattle tick; details: 5 μg/cm^2 (=500 g/ha), after 48 hours
Procedure: Rhipicephalus (Boophilus) Microplus—In-Vitro Contact Tests Larval Cattle Tick (Strain Parkhurst, Resistant Against Synthetic Pyrethroids)
(§1) 9 mg compound is solved in 1 mL acetone and diluted with acetone to the desired concentration. 250 μL of the test solution is filled in 25 mL glass test tubes and homogeneously distributed on the inner walls by rotation and tilting on a shaking device (2 h at 30 rpm). With a compound concentration of 900 ppm, an inner surface of 44.7 cm^2 and a homogeneous distribution, a dose of 5 μg/cm^2 is achieved.
After the solvent has evaporated, each test tube is filled with 20-50 cattle tick larvae (Rhipicephalus microplus), closed with a perforated lid and incubated in a horizontal position at 85% relative humidity and 27° C. in an incubator. After 48 hours efficacy is determined. The larvae are patted on the ground of the tubes and negative geotactic behavior is recorded.
An efficacy of 100% means all larvae are dead or moribund; 0% means no larvae are dead or moribund.

[2] = system: adult cat fleas (Ctenocephalides felis); assay: Ctenocephalides felis in-vitro contact test, adult cat flea; details: 5 μg/cm^2 (=500 g/ha), after 48 hours
Procedure: Ctenocephalides felis—In-Vitro Contact Tests Adult Cat Flea
as §1
After the solvent has evaporated, each test tube is filled with 5-10 adult cat fleas (Ctenocephalides felis), closed with a perforated lid and incubated in a lying position at room temperature and relative humidity. After 48 hours efficacy is determined. The fleas are patted on the ground of the tubes and are incubated on a heating plate at 45-50° C. for at most 5 minutes. Immotile or uncoordinated moving fleas, which are not able to escape the heat by climbing upwards, are marked as dead or moribund.
An efficacy of 100% means all fleas are dead or moribund; 0% means no fleas are dead or moribund.

[3] = system: fall armyworm larvae (Spodoptera frugiperda); assay: whole plant or invertebrate; details: 168 h
Summary of the method: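 Percent kill of Spodoptera frugiperda caterpillars, read 7 days after infestation of dried, spray-treated Zea mays leaf pieces. Spray preparation: compound in acetone plus dimethylformamide, diluted with emulsifier-containing water.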

[4] = system: adult brown dog ticks (Rhipicephalus sanguineus); assay: Rhipicephalus sanguineus in-vitro contact test, adult brown dog ticks; details: 48 h, read-out: efficacy (ticks dead or moribund)
Procedure: Rhipicephalus sanguineus—In-Vitro Contact Tests with Adult Brown Dog Ticks
as §1
After the solvent has evaporated, each test tube is filled with 5-10 adult brown dog ticks (Rhipicephalus sanguineus), closed with a perforated lid and incubated in a lying position at room temperature and relative humidity. After 48 hours efficacy is determined. The ticks are patted on the ground of the tubes and are incubated on a heating plate at 45-50° C. for at most 5 minutes. Immotile or uncoordinated moving ticks, which are not able to escape the heat by climbing upwards, are marked as dead or moribund.
An efficacy of 100% means all ticks are dead or moribund; 0% means no ticks are dead or moribund.

[5] = system: larvae of the banded cucumber beetle (Diabrotica balteata); assay: Diabrotica balteata spray test; details: 168 h, 100 g/ha (=32 μg/well), after 7 days, read-out: efficacy (seedling growth)
Summary of the method: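 Efficacy is seedling survival after 7 days, where 0% means no seedlings grew and 100% means growth equal to untreated, uninfested controls. Wheat seedlings, germinated on agar for 1 day, were sprayed with the aqueous emulsifier dilution (acetone/DMF solvent) and then exposed to 10–20 banded cucumber beetle larvae.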

[6] = system: larvae of the southern green stink bug (Nezara viridula); assay: whole plant or invertebrate; details: 96 h
Summary of the method: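 Percent mortality of southern green stink bug larvae was recorded at day 4, with 100% meaning all dead. The larvae were placed on barley sprayed with the test solution. That solution was prepared from acetone/dimethylformamide concentrate diluted in emulsifier-containing water (1000 ppm).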

[7] = system: adult mosquitoes Aedes aegypti strain MONHEIM; assay: Aedes aegypti test (AEDSAE surface treatment & contact assay); details: 24 hours after contact, read-out: efficacy (mortality); for mortality at 20 mg/m2: surface concentration 20 mg/m^2, 30 min exposure; for mortality at 4 mg/m2: surface concentration 4 mg/m^2, 30 min exposure
Procedure: Aedes aegypti Test (AEDSAE Surface Treatment & Contact Assay)
Solvent: Aceton+2000 ppm rapeseed oil methyl ester (RME)
This solution is pipetted onto a glazed tile and after evaporation of the acetone, adult mosquitoes of the species Aedes aegypti strain MONHEIM are placed onto the dried surface. The exposure time is 30 minutes. Mortality in percent (%) is determined 24 hours after contact of the insects to the treated surface. 100% mortality means that all tested insects are dead, whereas 0% means that no insect died.

[8] = system: green peach aphid (Myzus persicae); assay: Myzus persicae spray test (MYZUPE); details: 120 h, 100 g/ha, after 5 days
Summary of the method: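 Percent aphid kill, with 0% meaning none killed, was read 5 days after spraying. The preparation (acetone–DMF solvent, water with 1000 ppm emulsifier) was applied to Brassica pekinensis leaf disks carrying mixed-instar green peach aphids.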

[9] = system: brown planthopper (Nilaparvata lugens); assay: Nilaparvata lugens spray test; details: 96 h
Procedure: Nilaparvata lugens—Spray Test
• Solvent: 78.0 parts by weight of acetone • 1.5 parts by weight of dimethylformamide • Emulsifier: alkylarylpolyglycol ether
To produce a suitable preparation of active compound, 1 part by weight of active compound is mixed with the stated amount of solvents and is diluted with water, containing an emulsifier concentration of 1000 ppm, to the desired concentration. Further test concentrations are prepared by dilution with emulsifier containing water.
Rice plants (Oryza sativa) are sprayed with a preparation of the active ingredient of the desired concentration and the plants are infested with the brown planthopper (Nilaparvata lugens).
After 4 days mortality in % is determined. 100% means all planthoppers have been killed and 0% means none of the planthoppers have been killed.

CNC(=O)c1cc(-n2nc(C)nc2[C@H](C)NC(=O)c2cc(Br)cc(Br)c2)ncn1 [I-52]
efficacy (larvae dead or moribund) [1]: 100% | efficacy (fleas dead or moribund) [2]: 100% | mortality at 100 g/ha [3]: 100% | pest or weed control at 5 µg/cm2, 500 g/ha [4]: 100% | pest or weed control at 32 µg/disc, 100 g/ha [5]: 100%

C[C@H](NC(=O)c1cc(Cl)cc(S(=O)(=O)C(F)(F)F)c1)c1ncnn1-c1cc(C#N)ncn1 [I-7]
mortality at 100 g/ha [3]: 100% | mortality at 100 g/ha [6]: 90% | mortality at 500 g/ha [6]: 100% | mortality at 20 mg/m2 [7]: 80 to 100% | mortality at 100 g/ha [8]: 100% | pest or weed control at 32 µg/disc, 100 g/ha [5]: 100% | mortality at 500 g/ha [9]: 90%

CNC(=O)c1cc(-n2ncnc2[C@H](C)NC(=O)c2cc(Br)cc(Br)c2)ncn1 [I-46]
efficacy (larvae dead or moribund) [1]: 100% | efficacy (fleas dead or moribund) [2]: 100% | mortality at 100 g/ha [3]: 100% | mortality at 500 g/ha [6]: 100% | mortality at 100 g/ha [8]: 90% | pest or weed control at 32 µg/disc, 100 g/ha [5]: 100%

CC(C)N(C)C(=O)c1cc(-n2ncnc2[C@H](C)NC(=O)c2cc(Br)cc(Br)c2)ncn1 [I-40]
mortality at 100 g/ha [3]: 100% | mortality at 20 mg/m2 [7]: 80 to 100% | mortality at 100 g/ha [8]: 90% | pest or weed control at 32 µg/disc, 100 g/ha [5]: 100%

C[C@H](NC(=O)c1cc(C(F)(F)F)cc(C(F)(F)F)c1)c1ncnn1-c1cc(C(N)=O)ncn1 [I-135]
efficacy (larvae dead or moribund) [1]: 100% | mortality at 100 g/ha [3]: 100% | mortality at 100 g/ha [6]: 100% | mortality at 500 g/ha [6]: 100% | pest or weed control at 5 µg/cm2, 500 g/ha [4]: 100% | pest or weed control at 32 µg/disc, 100 g/ha [5]: 80% | mortality at 500 g/ha [9]: 100%

CC(C)N(C)C(=O)c1cc(-n2ncnc2[C@H](C)NC(=O)c2cc(OC(F)F)cc(C3CC3)c2)ncn1 [I-68]
efficacy (larvae dead or moribund) [1]: 100% | efficacy (fleas dead or moribund) [2]: 100% | mortality at 100 g/ha [3]: 100% | pest or weed control at 5 µg/cm2, 500 g/ha [4]: 100%

Cc1nc([C@H](C)NC(=O)c2cc(Br)cc(OC(F)(F)F)c2)n(-c2cc(C#N)ncn2)n1 [I-28]
efficacy (larvae dead or moribund) [1]: 100% | mortality at 100 g/ha [3]: 100% | mortality at 500 g/ha [6]: 90% | pest or weed control at 5 µg/cm2, 500 g/ha [4]: 100% | pest or weed control at 32 µg/disc, 100 g/ha [5]: 100%

C[C@H](NC(=O)c1cc(C#N)cc(OC(F)(F)F)c1)c1ncnn1-c1cc(C#N)ncn1 [I-38]
efficacy (larvae dead or moribund) [1]: 100% | efficacy (fleas dead or moribund) [2]: 90% | mortality at 100 g/ha [3]: 100% | mortality at 500 g/ha [6]: 100% | pest or weed control at 32 µg/disc, 100 g/ha [5]: 100% | mortality at 500 g/ha [9]: 100%

Cc1nc([C@H](C)NC(=O)c2cc(Cl)cc(C(F)(F)F)c2)n(-c2cc(C#N)ncn2)n1 [I-41]
mortality at 100 g/ha [3]: 100% | mortality at 500 g/ha [6]: 90% | mortality at 4 mg/m2 [7]: 80 to 100% | mortality at 100 g/ha [8]: 100% | pest or weed control at 32 µg/disc, 100 g/ha [5]: 100%

C[C@H](NC(=O)c1cc(OC(F)F)cc(C2CC2)c1)c1ncnn1-c1cc(C(N)=O)ncn1 [I-66]
efficacy (larvae dead or moribund) [1]: 100% | efficacy (fleas dead or moribund) [2]: 90% | mortality at 100 g/ha [3]: 100% | mortality at 500 g/ha [6]: 100% | mortality at 100 g/ha [8]: 90% | pest or weed control at 32 µg/disc, 100 g/ha [5]: 100%

CC(C)N(C)C(=O)c1cc(-n2ncnc2[C@H](C)NC(=O)c2cc(Cl)cc(OC(F)(F)F)c2)ncn1 [I-56]
efficacy (larvae dead or moribund) [1]: 100% | efficacy (fleas dead or moribund) [2]: 100% | mortality at 100 g/ha [3]: 100% | pest or weed control at 5 µg/cm2, 500 g/ha [4]: 100% | mortality at 100 g/ha [8]: 90% | pest or weed control at 32 µg/disc, 100 g/ha [5]: 100%

C[C@H](NC(=O)c1cc(OC(F)(F)F)cc(S(C)(=O)=O)c1)c1ncnn1-c1cc(C#N)ncn1 [I-19]
mortality at 100 g/ha [3]: 100% | mortality at 100 g/ha [6]: 90% | mortality at 500 g/ha [6]: 100% | mortality at 4 mg/m2 [7]: 80 to 100% | mortality at 20 mg/m2 [7]: 80 to 100% | mortality at 100 g/ha [8]: 100% | pest or weed control at 32 µg/disc, 100 g/ha [5]: 100%

CC(C)N(C)C(=O)c1cc(-n2ncnc2[C@H](C)NC(=O)c2cc(Br)cc(OC(F)(F)F)c2)ncn1 [I-55]
efficacy (larvae dead or moribund) [1]: 100% | efficacy (fleas dead or moribund) [2]: 100% | mortality at 100 g/ha [3]: 100% | pest or weed control at 5 µg/cm2, 500 g/ha [4]: 100% | mortality at 100 g/ha [8]: 100% | pest or weed control at 32 µg/disc, 100 g/ha [5]: 100%

C[C@H](NC(=O)c1cc(C(F)(F)F)cc(S(C)(=O)=O)c1)c1ncnn1-c1cc(C#N)ncn1 [I-2]
efficacy (larvae dead or moribund) [1]: 100% | mortality at 4 mg/m2 [7]: 80 to 100% | mortality at 20 mg/m2 [7]: 80 to 100% | pest or weed control at 32 µg/disc, 100 g/ha [5]: 80%

Cc1nc([C@H](C)NC(=O)c2cc(OC(F)(F)F)cc(C3CC3)c2)n(-c2cc(C#N)ncn2)n1 [I-25]
mortality at 100 g/ha [3]: 100% | mortality at 500 g/ha [6]: 100% | mortality at 4 mg/m2 [7]: 80 to 100% | mortality at 20 mg/m2 [7]: 80 to 100% | pest or weed control at 32 µg/disc, 100 g/ha [5]: 100%

Cc1nc([C@H](C)NC(=O)c2cc(Cl)cc(SC(F)(F)F)c2)n(-c2cc(C#N)ncn2)n1 [I-6]
efficacy (larvae dead or moribund) [1]: 100% | mortality at 100 g/ha [3]: 100% | pest or weed control at 5 µg/cm2, 500 g/ha [4]: 100% | pest or weed control at 32 µg/disc, 100 g/ha [5]: 100%

C[C@H](NC(=O)c1cc(Br)cc(Br)c1)c1ncnn1-c1cc(C#N)ncn1 [I-4]
efficacy (larvae dead or moribund) [1]: 100% | mortality at 100 g/ha [3]: 100% | pest or weed control at 5 µg/cm2, 500 g/ha [4]: 100% | mortality at 20 mg/m2 [7]: 80 to 100% | pest or weed control at 32 µg/disc, 100 g/ha [5]: 100%

From US12612386B2, “Heteroaryl-triazole compounds as pesticides” (Bayer Aktiengesellschaft, priority 2020, dated 2026)
